Data reported in PubChem BioAssay AID2060611 (Molecular Pharmacology Branch, DTP, NCI, 2025).
Values joined by “and” are separate entries in the source; they are usually repeats but may differ in a detail not shown here. Identical values can stand only once.

Test system: 628569-122-R-J1-PDC complex spheroid viability
Experiment: Anticancer human tumor 628569-122-R-J1-PDC patient-derived head and neck squamous carcinoma cell line growth inhibition [CLK]
Conditions: for viability, T/C: stronger effect = lower value; active means viability on the fitted dose curve at most 10% of control; inactive means the rest
Description: A high-throughput screen of multi-cell type tumor spheroids was designed to identify active combinations of […] and targeted small molecules. Complex spheroids include a stromal component modeled by human endothelial cells (HUVEC) and fibroblasts modeled by human mesenchymal stem cells (MSCs). The concentration ranges selected for each drug and investigational agent were based upon clinically achievable concentrations if the clinical Cmax of the agent was known.
Compounds. The drugs and investigational agents: cirtuvivint (SM08502; NSC835563), CC-671 (NSC850746), vemurafenib (NSC761431), tapotoclax (NSC804041), sotorasib (NSC818433), adagrasib (NSC831453), MRTX-1133 (NSC836407), BAY2416964 (NSC825713), copanlisib (NSC816437), inavolisib (NSC800729), abemaciclib (NSC768073), osimertinib (NSC779217), entinostat (NSC756642), eltanexor (KPT-8602, NSC794443), venetoclax (NSC766270), ceralasertib (NSC777638), bortezomib (NSC756655), olaparib (NSC753686), talazoparib (NSC767125), alisertib (NSC759677), peposertib (NSC802822), gemcitabine (NSC613327), 5-fluorouracil (NSC19893), SN-38 (NSC673596), oxaliplatin (NSC266046), paclitaxel (NSC125973), and doxorubicin (NSC123127), were obtained from the National Cancer Institute (NCI) Developmental Therapeutics Program Chemical Repository. The FDA-approved anticancer drug set is available from the Developmental Therapeutics Program at https://dtp.cancer.gov/organization/dscb/obtaining/available plates.htm. […] The stock solutions were prepared in dimethyl sulfoxide (DMSO, Sigma-Aldrich, St. Louis, MO, cat. D2650), except for the platinum complexes which were prepared in saline (Quality Biological, Gaithersburg, MD, cat. 114-055-101), at 800-fold the tested concentration and stored at -70 degrees C prior to their use. All drugs and investigational agents were tested over a range starting from a high concentration at or near the clinical Cmax and decreasing in half-log increments. If the clinical Cmax for an agent had not been determined, the highest concentration tested was 10 microM.
Cell Culture. All cells were maintained in an incubator at 37 degrees C and 5% CO2 with 95% humidity. The PDC lines were cultured according to standard operating procedures established by the NCI PDMR. Briefly, all PDCs were thawed and cultured in Matrigel-coated flasks prepared with a working solution of 1X Ham's F-12 nutrient mix, without supplementation (Invitrogen, Waltham, MA, cat. 11765054), 100 U/mL penicillin-streptomycin (Invitrogen, cat. 15140122), and 2.5% Matrigel (Corning Inc., Corning, NY, cat. 354248) for the first three passages. The 947758-054-R-J2-PDC line was cultured in 6B/Colon 1A media, which includes advanced DMEM/F-12 (Thermo Fisher Scientific, cat. 12634028), 10 mM HEPES (Thermo Fisher Scientific, cat. 15630080), 1X GlutaMAX supplement (Thermo Fisher Scientific, cat. 35050061), 0.1 mg/mL primocin (InvivoGen, cat. ant-pm-2), 10% defined fetal bovine serum, heat inactivated (HyClone Laboratories Inc., cat. SH30070.03HI), 1.25 mM N-Acetyl-L-cysteine (Sigma-Aldrich, cat. A9165), 10 mM nicotinamide (Sigma-Aldrich, cat. N0636), 1X B-27 supplement (Thermo Fisher Scientific, cat. 17504044), 1X N-2 supplement (Thermo Fisher Scientific, cat. 17502048), and 10 microM Y-27632 dihydrochloride (Tocris Bioscience, cat. 1254). The 876862-298-R-J1-PDC was cultured in 6E media, which includes all 6B/Colon 1A media components plus 50% L-WRN conditioned media (ATCC, cat. CRL-3276), 50 ng/mL recombinant human EGF recombinant protein (hEGF; Thermo Fisher Scientific, cat. PHG0311), 10 ng/mL recombinant human fibroblast growth factor 10 (hGFG-10; PeproTech, cat. 100-26), 1 ng/mL recombinant human fibroblast growth factor 2 (hFGF-2; PeproTech, cat. 100-18B), and 1 µM prostaglandin E2 (PGE2; Tocris, cat. 2296). The 227483-062-R1-J1-PDC line was cultured in Panc media, containing all 6E components except hFGF-2, with the addition of 500 nM SB-431542 (Selleckchem, cat. S1067) and 10 nM gastrin (Tocris, cat. 3006). […]

[1] = curve of first compound, second compound 0.0316 µM
[2] = curve of first compound, second compound 0.1 µM
[3] = curve of first compound, second compound 0.316 µM
[4] = curve of first compound, second compound 1 µM
[5] = curve of first compound, second compound 3.16 µM
[6] = curve of first compound, second compound 10 µM
[7] = second compound 0.0316 µM, first compound 0.0316 µM
[8] = second compound 0.0316 µM, first compound 0.1 µM
[9] = second compound 0.0316 µM, first compound 0.316 µM
[10] = second compound 0.0316 µM, first compound 1 µM
[11] = second compound 0.1 µM, first compound 0.0316 µM
[12] = second compound 0.1 µM, first compound 0.1 µM
[13] = second compound 0.1 µM, first compound 0.316 µM
[14] = second compound 0.1 µM, first compound 1 µM
[15] = second compound 0.316 µM, first compound 0.0316 µM
[16] = second compound 0.316 µM, first compound 0.1 µM
[17] = second compound 0.316 µM, first compound 0.316 µM
[18] = second compound 0.316 µM, first compound 1 µM
[19] = second compound 1 µM, first compound 0.0316 µM
[20] = second compound 1 µM, first compound 0.1 µM
[21] = second compound 1 µM, first compound 0.316 µM
[22] = second compound 1 µM, first compound 1 µM
[23] = second compound 3.16 µM, first compound 0.0316 µM
[24] = second compound 3.16 µM, first compound 0.1 µM
[25] = second compound 3.16 µM, first compound 0.316 µM
[26] = second compound 3.16 µM, first compound 1 µM
[27] = second compound 10 µM, first compound 0.0316 µM
[28] = second compound 10 µM, first compound 0.1 µM
[29] = second compound 10 µM, first compound 0.316 µM
[30] = second compound 10 µM, first compound 1 µM
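Further: spheroids exposed to agents for seven days before readout.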

O=C(c1cc(Cc2n[nH]c(=O)c3ccccc23)ccc1F)N1CCN(C(=O)C2CC2)CC1
inactive: viability, T/C (compound 0.0316 µM) 86.8% and 91.2% | viability, T/C (compound 0.1 µM) 96.3% and 91.3% | viability, T/C (compound 0.316 µM) 90.6% and 110% | viability, T/C (compound 1 µM) 88.7% and 91.9% | viability, T/C (compound 3.16 µM) 74.6% and 93.7% | viability, T/C (compound 10 µM) 55.2% and 51.5%
> 10000 nM: IC50 (curve of compound)

COc1c(OCCCN2CCOCC2)ccc2c3n(c(=NC(=O)c4cnc(N)nc4)nc12)CCN3
4.99% and 10.7%: viability, T/C (compound 1 µM)
16 nM and 9.1 nM: IC50 (curve of compound)
inactive: viability, T/C (compound 0.00316 µM) 79.2% and 77.8% | viability, T/C (compound 0.01 µM) 61.3% and 39.7% | viability, T/C (compound 0.0316 µM) 33.9% and 37.7% | viability, T/C (compound 0.1 µM) 21.9% and 23.6% | viability, T/C (compound 0.316 µM) 15.5% and 12.8%

COc1c(OCCCN2CCOCC2)ccc2c3n(c(=NC(=O)c4cnc(N)nc4)nc12)CCN3 + CN1CCN(c2cc(C(=O)Nc3cc4cc(-c5cnn(C)c5)ccc4cn3)ccn2)CC1
9 nM: IC50 [2]
21.1 nM: IC50 [1]
inactive: viability, T/C (second compound 0.0316 µM, first compound 0.00316 µM) 77% | viability, T/C (second compound 0.0316 µM, first compound 0.01 µM) 67.5% | viability, T/C [7] 34.4% | viability, T/C [8] 34.8% | viability, T/C [9] 18.3% | viability, T/C (second compound 0.1 µM, first compound 0.00316 µM) 54.5% | viability, T/C (second compound 0.1 µM, first compound 0.01 µM) 51.3% | viability, T/C [11] 34.6% | viability, T/C [12] 16.8% | viability, T/C (second compound 0.316 µM, first compound 0.00316 µM) 35.2% | viability, T/C (second compound 0.316 µM, first compound 0.01 µM) 21.1% | viability, T/C [15] 11.8%
active: viability, T/C [10] 7.77% | viability, T/C [13] 13.2% | viability, T/C [14] 2.93% | viability, T/C [16] 9.4% | viability, T/C [17] 5.28% | viability, T/C [18] 1.37% | viability, T/C (second compound 1 µM, first compound 0.00316 µM) 9.4% | viability, T/C (second compound 1 µM, first compound 0.01 µM) 8.16% | viability, T/C [19] 8.92% | viability, T/C [20] 6.58% | viability, T/C [21] 5.37% | viability, T/C [22] 4.98% | viability, T/C (second compound 3.16 µM, first compound 0.00316 µM) 5.32% | viability, T/C (second compound 3.16 µM, first compound 0.01 µM) 5.77% | viability, T/C [23] 8.53% | viability, T/C [24] 6.16% | viability, T/C [25] 7.48% | viability, T/C [26] 4.29% | viability, T/C (second compound 10 µM, first compound 0.00316 µM) 7.43% | viability, T/C (second compound 10 µM, first compound 0.01 µM) 2.01% | viability, T/C [27] 3.89% | viability, T/C [28] 2.57% | viability, T/C [29] 3.58% | viability, T/C [30] 2.62%
< 3.16 nM: IC50 [3] | IC50 [4] | IC50 [5] | IC50 [6]

COC1C=CCC(C)C(C)S(=O)(=O)NC(=O)c2ccc3c(c2)N(CC2CCC21)CC1(CCCc2cc(Cl)ccc21)CO3 (stereo not drawn) + CNC(=O)c1ccc(Nc2nc(OC3CCCC3)c3c(-c4ccc5nc(C)oc5c4)c[nH]c3n2)c(OC)c1
< 31.6 nM: IC50 [3] | IC50 [4] | IC50 [5] | IC50 [6]
2000 nM: IC50 [1]
142 nM: IC50 [2]
inactive: viability, T/C [7] 103% | viability, T/C [8] 87.7% | viability, T/C [9] 64.8% | viability, T/C [10] 55.4% | viability, T/C (second compound 0.0316 µM, first compound 3.16 µM) 48.4% | viability, T/C (second compound 0.0316 µM, first compound 10 µM) 43.5% | viability, T/C [11] 58.7% | viability, T/C [12] 51% | viability, T/C [13] 47.7% | viability, T/C [14] 40.3% | viability, T/C (second compound 0.1 µM, first compound 3.16 µM) 34.8% | viability, T/C (second compound 0.1 µM, first compound 10 µM) 34.3% | viability, T/C [15] 46.3% | viability, T/C [16] 49.7% | viability, T/C [17] 36.7% | viability, T/C [18] 33.1% | viability, T/C (second compound 0.316 µM, first compound 3.16 µM) 35.8% | viability, T/C (second compound 0.316 µM, first compound 10 µM) 33.4% | viability, T/C [19] 51.2% | viability, T/C [20] 45.9% | viability, T/C [21] 36.9% | viability, T/C [22] 35.9% | viability, T/C (second compound 1 µM, first compound 3.16 µM) 46% | viability, T/C (second compound 1 µM, first compound 10 µM) 34.6% | viability, T/C [23] 43.2% | viability, T/C [24] 41.1% | viability, T/C [25] 33.4% | viability, T/C [26] 29.4% | viability, T/C (second compound 3.16 µM, first compound 3.16 µM) 30.9% | viability, T/C (second compound 3.16 µM, first compound 10 µM) 25.4% | viability, T/C [27] 40.1% | viability, T/C [28] 38.4% | viability, T/C [29] 32.1% | viability, T/C [30] 30.5% | viability, T/C (second compound 10 µM, first compound 3.16 µM) 35.9% | viability, T/C (second compound 10 µM, first compound 10 µM) 26.4%
